Reference: PubChem BioAssay (NCI)
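Cells were grown in 96-well plates and exposed to each compound for 48 hours at five concentrations; endpoints were interpolated linearly between bracketing concentrations, or set to the highest concentration if not reached. The concentration for 50% growth inhibition is given as GI50. The concentration for full growth arrest is given as TGI.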

Experiments:
Assay in all cases: inhibition of tumour cell growth, NCI panel, 48 h
[1] = test system: SN12C renal
[2] = test system: DU-145 prostate
[3] = test system: HL-60(TB) leukemia
[4] = test system: TK-10 renal
[5] = test system: SK-MEL-2 melanoma
[6] = test system: SF-295 CNS
[7] = test system: SW-620 colon
[8] = test system: OVCAR-5 ovarian
[9] = test system: UACC-62 melanoma
[10] = test system: OVCAR-4 ovarian
[11] = test system: M14 melanoma
[12] = test system: HOP-92 NSCLC
[13] = test system: U251 CNS
[14] = test system: SNB-19 CNS
[15] = test system: NCI-H460 lung
[16] = test system: HCT-116 colon
[17] = test system: RPMI-8226 leukemia
[18] = test system: HOP-62 NSCLC
[19] = test system: SNB-75 CNS
[20] = test system: MDA-MB-231 breast
[21] = test system: COLO 205 colon
[22] = test system: 786-0 renal
[23] = test system: MDA-MB-435
[24] = test system: LOX IMVI melanoma
[25] = test system: NCI-H226 lung
[26] = test system: NCI-H23 lung
[27] = test system: CAKI-1 renal

Question: Which GI50 [1] does the source give for O=S(=O)(Nc1ccc(-c2nc(-c3cccc(O)c3)c(-c3ccnc(Br)c3)[nH]2)cc1)c1ccccc1 here?
Answer: 2910 nM

Question: And the TGI [1]?
Answer: 13.2 µM

Question: And the GI50 [2]?
Answer: 3.24 µM

Question: What about the TGI [2] of the same molecule?
Answer: 10.9 µM

Question: And the GI50 [3]?
Answer: 2440 nM

Question: What about the TGI [3] of the same molecule?
Answer: 6.46 µM

Question: What about the GI50 [4] of the same molecule?
Answer: 3.04 µM

Question: And the TGI [4]?
Answer: 9.95 µM

Question: What about the GI50 [5] of the same molecule?
Answer: 2410 nM

Question: What about the TGI [5] of the same molecule?
Answer: 6.21 µM

Question: What about the GI50 [6] of the same molecule?
Answer: 1900 nM

Question: And the TGI [6]?
Answer: 4.25 µM

Question: What about the GI50 [7] of the same molecule?
Answer: 2840 nM

Question: What about the TGI [7] of the same molecule?
Answer: 10.6 µM

Question: And the GI50 [8]?
Answer: 4.34 µM

Question: What about the TGI [8] of the same molecule?
Answer: 22.7 µM

Question: What about the GI50 [9] of the same molecule?
Answer: 1910 nM

Question: What about the TGI [9] of the same molecule?
Answer: 4.97 µM

Question: And the GI50 [10]?
Answer: 3.09 µM

Question: What about the TGI [10] of the same molecule?
Answer: 15.1 µM

Question: What about the GI50 [11] of the same molecule?
Answer: 2500 nM

Question: And the TGI [11]?
Answer: 8.55 µM

Question: And the GI50 [12]?
Answer: 1690 nM

Question: And the TGI [12]?
Answer: 4.9 µM

Question: What about the GI50 [13] of the same molecule?
Answer: 2710 nM

Question: And the TGI [13]?
Answer: 10.8 µM

Question: And the GI50 [14]?
Answer: 3.32 µM

Question: And the TGI [14]?
Answer: 15.5 µM

Question: What about the GI50 [15] of the same molecule?
Answer: 2140 nM

Question: What about the TGI [15] of the same molecule?
Answer: 4.71 µM

Question: And the GI50 [16]?
Answer: 2430 nM

Question: And the TGI [16]?
Answer: 7.16 µM

Question: What about the GI50 [17] of the same molecule?
Answer: 2350 nM

Question: And the TGI [17]?
Answer: 6.63 µM

Question: And the GI50 [18]?
Answer: 2420 nM

Question: And the TGI [18]?
Answer: 6.43 µM

Question: And the GI50 [19]?
Answer: 1300 nM

Question: What about the TGI [19] of the same molecule?
Answer: 7.18 µM

Question: And the GI50 [20]?
Answer: 2710 nM

Question: What about the TGI [20] of the same molecule?
Answer: 11.7 µM

Question: And the GI50 [21]?
Answer: 2420 nM

Question: And the TGI [21]?
Answer: 6.81 µM

Question: What about the GI50 [22] of the same molecule?
Answer: 2510 nM

Question: And the TGI [22]?
Answer: 7.48 µM

Question: And the GI50 [23]?
Answer: 2200 nM

Question: And the TGI [23]?
Answer: 6.54 µM

Question: What about the GI50 [24] of the same molecule?
Answer: 1740 nM

Question: And the TGI [24]?
Answer: 3.29 µM

Question: And the GI50 [25]?
Answer: 2250 nM

Question: What about the TGI [25] of the same molecule?
Answer: 7.27 µM

Question: And the GI50 [26]?
Answer: 2180 nM

Question: And the TGI [26]?
Answer: 6.11 µM

Question: And the GI50 [27]?
Answer: 2150 nM

Question: What about the TGI [27] of the same molecule?
Answer: 7.51 µM
